Data as given in BindingDB's records for PubMed 36325400 (Prince Sattam Bin Abdulaziz University, 2022).

Each compound was assayed against Phospholipase A2 group V (Homo sapiens) (UniProt P39877) (assay: Inhibition of recombinant human sPLA2-V).
Chain of Phospholipase A2 group V (Homo sapiens) (P39877 whole entry, looked up): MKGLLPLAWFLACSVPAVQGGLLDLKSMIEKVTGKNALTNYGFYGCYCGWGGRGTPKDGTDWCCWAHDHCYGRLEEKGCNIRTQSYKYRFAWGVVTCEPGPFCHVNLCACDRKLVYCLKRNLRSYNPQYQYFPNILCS

| IC50 [nM] | SMILES |
| --- | --- |
| 3100 | COc1ccnc(Nc2n[nH]c(N)c2C#N)c1 |
| 2600 | COc1ccnc(Nc2nn3c(SC)c(C#N)c(N)nc3c2C#N)c1 |
| 1000 | COc1ccnc(Nc2nn3c(SC)c(C#N)c(O)nc3c2C#N)c1 |
| 3200 | COc1ccnc(Nc2nn3c(C)cc(C)nc3c2C#N)c1 |
| 1700 | CCOc1cc(C)nc2c(C#N)c(Nc3cc(OC)ccn3)nn12 |
| 3200 | CCOc1cc(N)n2nc(Nc3cc(OC)ccn3)c(C#N)c2n1 |
| 590 | C[C@@H]1C[C@H]2[C@@H]3CCC4=CC(=O)C=C[C@]4(C)[C@@]3(F)[C@@H](O)C[C@]2(C)[C@@]1(O)C(=O)CO [dexamethasone (tetramethyl-rhodamine conjugated )] |
